Reference: patent publication US6653334B1, “Benzoxazole compound and pharmaceutical composition containing the same” (Kowa Co., Ltd., priority 2002, dated 2003)
One block for each compound: values may come before it.

Experiments:
Assay type in all cases: cell-based
hPPARα = biological target: T1, hPPARα (Homo sapiens, UniProt Q07869); test: PPAR transfection (luciferase reporter) assay in COS cells, hPPARα; settings: agonist activity, transiently transfected COS cells, 16 hours incubation; read-out: hPPAR; EC50 α
T1 construct: expressed in transfected cells; host or cells: COS cells (Cercopithecus aethiops kidney)
T1 sequence (Q07869 1-468): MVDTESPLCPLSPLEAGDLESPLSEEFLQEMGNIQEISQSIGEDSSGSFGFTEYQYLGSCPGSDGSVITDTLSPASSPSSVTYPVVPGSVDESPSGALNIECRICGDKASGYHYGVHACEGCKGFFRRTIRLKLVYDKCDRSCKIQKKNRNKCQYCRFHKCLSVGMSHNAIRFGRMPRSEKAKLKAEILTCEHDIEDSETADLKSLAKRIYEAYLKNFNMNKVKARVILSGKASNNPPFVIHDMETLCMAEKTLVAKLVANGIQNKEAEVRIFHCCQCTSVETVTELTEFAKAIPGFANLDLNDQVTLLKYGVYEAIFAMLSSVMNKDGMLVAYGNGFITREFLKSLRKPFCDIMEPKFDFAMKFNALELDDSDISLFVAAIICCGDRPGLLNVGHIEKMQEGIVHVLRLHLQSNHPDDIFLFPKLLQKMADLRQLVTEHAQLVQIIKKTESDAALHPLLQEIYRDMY

hPPARγ = biological target: T2, hPPARγ (Homo sapiens, UniProt P37231); test: PPAR transfection (luciferase reporter) assay in COS cells, hPPARγ; settings: agonist activity, transiently transfected COS cells, 16 hours incubation; read-out: hPPAR; EC50 γ
T2 construct: expressed in transfected cells; host or cells: COS cells (Cercopithecus aethiops kidney)
T2 sequence (P37231 1-505): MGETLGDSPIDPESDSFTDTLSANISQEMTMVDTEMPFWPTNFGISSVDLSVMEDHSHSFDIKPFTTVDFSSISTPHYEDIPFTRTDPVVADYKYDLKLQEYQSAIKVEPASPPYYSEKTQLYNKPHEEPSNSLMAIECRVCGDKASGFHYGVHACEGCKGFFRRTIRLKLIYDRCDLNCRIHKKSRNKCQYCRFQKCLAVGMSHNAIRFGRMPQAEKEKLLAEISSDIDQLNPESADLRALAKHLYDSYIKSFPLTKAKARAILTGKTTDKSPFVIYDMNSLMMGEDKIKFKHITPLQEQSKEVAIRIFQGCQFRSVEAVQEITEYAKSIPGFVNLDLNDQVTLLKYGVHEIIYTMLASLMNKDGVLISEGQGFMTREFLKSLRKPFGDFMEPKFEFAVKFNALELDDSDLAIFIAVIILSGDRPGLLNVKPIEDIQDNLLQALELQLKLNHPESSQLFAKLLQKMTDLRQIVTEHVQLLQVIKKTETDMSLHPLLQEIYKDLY

hPPARδ = biological target: T3, hPPARδ (Homo sapiens, UniProt Q03181); test: PPAR transfection (luciferase reporter) assay in COS cells, hPPARδ; settings: agonist activity, transiently transfected COS cells, 16 hours incubation; read-out: hPPAR; EC50 δ
T3 construct: expressed in transfected cells; host or cells: COS cells (Cercopithecus aethiops kidney)
T3 sequence (Q03181 1-441): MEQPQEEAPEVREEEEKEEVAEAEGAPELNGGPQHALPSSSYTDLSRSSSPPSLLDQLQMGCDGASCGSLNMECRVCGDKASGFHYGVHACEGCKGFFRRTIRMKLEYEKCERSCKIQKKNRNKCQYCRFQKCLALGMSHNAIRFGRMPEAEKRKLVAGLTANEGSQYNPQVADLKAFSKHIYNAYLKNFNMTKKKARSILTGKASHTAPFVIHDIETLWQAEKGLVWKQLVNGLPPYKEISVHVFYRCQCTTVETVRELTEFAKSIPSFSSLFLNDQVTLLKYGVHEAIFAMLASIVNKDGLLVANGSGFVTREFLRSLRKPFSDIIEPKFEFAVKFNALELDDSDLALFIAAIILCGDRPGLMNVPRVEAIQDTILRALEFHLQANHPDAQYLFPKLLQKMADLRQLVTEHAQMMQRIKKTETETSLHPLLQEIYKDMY

SMILES: CCCCCCCCN(Cc1cccc(OC(C)(C)C(=O)O)c1)c1nc2ccccc2o1 [Example 6, 2-[3-[[N-(Benzoxazol-2-yl)-N-n-octyl]aminomethyl]phenoxy]-2-methylpropionic Acid]
EC50 (hPPARα): 0.01 µM
EC50 (hPPARγ): 0.2 µM
EC50 (hPPARδ): > 10 µM

SMILES: CC(C)(Oc1ccc(CN(Cc2ccccc2[N+](=O)[O-])c2nc3ccccc3o2)cc1)C(=O)O [Example 29, 2-[4-[[N-(Benzoxazol-2-yl)-N-(2-nitrobenzyl)]aminomethyl]phenoxy]-2-methylpropionic Acid]
EC50 (hPPARα): 0.1 µM
EC50 (hPPARγ): > 10 µM
EC50 (hPPARδ): > 10 µM

SMILES: CN(C)c1ccc(CN(Cc2cccc(OC(C)(C)C(=O)O)c2)c2nc3ccccc3o2)cc1 [Example 41, 2-[3-[[N-(Benzoxazol-2-yl)-N-(4-dimethylaminobenzyl)]aminomethyl]phenoxy]-2-methylpropionic Acid]
EC50 (hPPARα): 0.01 µM
EC50 (hPPARγ): 0.2 µM
EC50 (hPPARδ): 1.8 µM

SMILES: CCCCCCCN(Cc1cccc(OCC(=O)O)c1)c1nc2ccccc2o1 [Example 46, 3-[[N-(Benzoxazol-2-yl)-N-n-heptyl]aminomethyl]phenoxyacetic Acid]
EC50 (hPPARα): 0.01 µM
EC50 (hPPARγ): 0.4 µM
EC50 (hPPARδ): 1.1 µM

SMILES: CCCCCCCCN(Cc1cccc(OCC(=O)O)c1)c1nc2ccccc2o1 [Example 48, 3-[[N-(Benzoxazol-2-yl)-N-n-octyl]aminomethyl]phenoxyacetic Acid]
EC50 (hPPARα): 0.01 µM
EC50 (hPPARγ): 0.7 µM
EC50 (hPPARδ): 4.5 µM

SMILES: CCCN(Cc1cccc(OC(C)C(=O)O)c1)c1nc2ccccc2o1 (stereo not drawn) [Example 74, 2-[3-[[N-(Benzoxazol-2-yl)-N-n-propyl]aminomethyl]phenoxy]propionic Acid]
EC50 (hPPARα): 0.1 µM
EC50 (hPPARγ): > 10 µM
EC50 (hPPARδ): > 10 µM

SMILES: CCN(CCCc1ccc(OC(C)(C)C(=O)O)cc1)c1nc2ccccc2o1 [Example 114, 2-[4-[3-[N-(Benzoxazol-2-yl)-N-ethyl]aminopropyl]phenoxy]-2-methylpropionic Acid]
EC50 (hPPARα): 0.01 µM
EC50 (hPPARγ): 0.4 µM
EC50 (hPPARδ): > 10 µM

SMILES: CC#CCN(CCCc1cccc(OC(C)(C)C(=O)O)c1)c1nc2ccccc2o1 [Example 121, 2-[3-[3-[N-(Benzoxazol-2-yl)-N-(2-butynyl)]aminopropyl]phenoxy]-2-methylpropionic Acid]
EC50 (hPPARα): 0.004 µM
EC50 (hPPARγ): 0.1 µM
EC50 (hPPARδ): > 10 µM

SMILES: CCCN(CCCc1ccc(OC(C)(C)C(=O)O)cc1)c1nc2ccccc2o1 [Example 132, 2-[4-[3-[N-(Benzoxazol-2-yl)-N-n-propyl]aminopropyl]phenoxy]-2-methylpropionic Acid]
EC50 (hPPARα): 0.03 µM
EC50 (hPPARγ): 2 µM
EC50 (hPPARδ): > 10 µM

SMILES: CC(C)N(CCCc1ccc(OC(C)(C)C(=O)O)cc1)c1nc2ccccc2o1 [Example 133, 2-[4-[3-[N-(Benzoxazol-2-yl)-N-isopropyl]aminopropyl]phenoxy]-2-methylpropionic Acid]
EC50 (hPPARα): 0.01 µM
EC50 (hPPARγ): 0.3 µM
EC50 (hPPARδ): 3 µM

SMILES: CC(C)(Oc1cccc(CN(Cc2cccc3ccccc23)c2nc3ccccc3o2)c1)C(=O)O [Example 135, 2-[3-[[N-(Benzoxazol-2-yl)-N-(naphth-1-ylmethyl)]aminomethyl]phenoxy]-2-methylpropionic Acid]
EC50 (hPPARα): 0.01 µM
EC50 (hPPARγ): > 10 µM
EC50 (hPPARδ): > 10 µM

SMILES: CCCCCCCCN(CCCc1ccccc1OC(C)(C)C(=O)O)c1nc2ccccc2o1 [Example 155, 2-[2-[3-[N-(Benzoxazol-2-yl)-N-n-octyl]aminopropyl]phenoxy]-2-methylpropionic Acid]
EC50 (hPPARα): 0.01 µM
EC50 (hPPARγ): 0.5 µM
EC50 (hPPARδ): 0.3 µM

SMILES: CC(C)(Oc1cccc(CN(Cc2ccc(Cl)cc2)c2nc3ccccc3o2)c1)C(=O)O [compound 1]
EC50 (hPPARα): 0.01 µM
EC50 (hPPARγ): 0.2 µM
EC50 (hPPARδ): > 10 µM

Compounds with a lower EC50 (hPPARα), results first:

EC50 (hPPARα): 0.003 µM
EC50 (hPPARγ): 0.1 µM
EC50 (hPPARδ): 0.5 µM
SMILES: CC(C)(Oc1ccc(CN(Cc2cccc3ccccc23)c2nc3ccccc3o2)cc1)C(=O)O [Example 12, 2-[4-[[N-(Benzoxazol-2-yl)-N-(naphth-1-ylmethyl)]aminomethyl]phenoxy]-2-methylpropionic Acid]

EC50 (hPPARα): 0.003 µM
EC50 (hPPARγ): 0.1 µM
EC50 (hPPARδ): > 10 µM
SMILES: CCCCCCCCN(Cc1cccc(OC(CC)C(=O)O)c1)c1nc2ccccc2o1 (stereo not drawn) [Example 59, 2-[3-[[N-(Benzoxazol-2-yl)-N-n-octyl]aminomethyl]phenoxy]butyric Acid]

EC50 (hPPARα): 0.002 µM
EC50 (hPPARγ): 0.1 µM
EC50 (hPPARδ): 0.6 µM
SMILES: CCC(Oc1cccc(CN(CCCc2ccccc2)c2nc3ccccc3o2)c1)C(=O)O (stereo not drawn) [Example 55, 2-[3-[[N-(Benzoxazol-2-yl)-N-(3-phenylpropyl)]aminomethyl]phenoxy]butyric Acid]

EC50 (hPPARα): 0.002 µM
EC50 (hPPARγ): 0.1 µM
EC50 (hPPARδ): 0.9 µM
SMILES: CC(Oc1cccc(CN(CCCc2ccc(Cl)cc2)c2nc3ccccc3o2)c1)C(=O)O (stereo not drawn) [Example 63, 2-[3-[[N-(Benzoxazol-2-yl)-N-(3-(4-chlorophenyl)propyl)]aminomethyl]phenoxy]propionic Acid]

EC50 (hPPARα): 0.001 µM
EC50 (hPPARγ): 0.1 µM
EC50 (hPPARδ): 1 µM
SMILES: CCC(Oc1cccc(CN(CCCc2ccc(Cl)cc2)c2nc3ccccc3o2)c1)C(=O)O (stereo not drawn) [Example 56, 2-[3-[[N-(Benzoxazol-2-yl)-N-(3-(4-chlorophenyl)propyl)]aminomethyl]phenoxy]butyric Acid]

EC50 (hPPARα): 0.001 µM
EC50 (hPPARγ): 0.4 µM
EC50 (hPPARδ): > 10 µM
SMILES: CC(Oc1cccc(CN(CCCc2ccccc2)c2nc3ccccc3o2)c1)C(=O)O (stereo not drawn) [Example 70, 2-[3-[[N-(Benzoxazol-2-yl)-N-(3-phenylpropyl)]aminomethyl]phenoxy]propionic Acid]

EC50 (hPPARα): 0.0003 µM
EC50 (hPPARγ): 0.2 µM
EC50 (hPPARδ): > 10 µM
SMILES: CCCCCCCCN(Cc1cccc(OC(C)C(=O)O)c1)c1nc2ccccc2o1 (stereo not drawn) [Example 69, 2-[3-[[N-(Benzoxazol-2-yl)-N-n-octyl]aminomethyl]phenoxy]propionic Acid]
